In patent US20250242060A1, “CHEMOGENETIC REGULATION OF PEPTIDE FUNCTION” (priority 2022, published 2025):
“Also recorded” adds a separate entry of the source.

Columns and labels:
mu-opioid receptor (MOR) [1] = experiment: GloSensor cAMP assay, single chain met-enkephalin-CapC-MOR; conditions: HEK 293T, forskolin stimulated
Text: A cyclic adenosine monophosphate (cAMP)-dependent luciferase (GloSensor) was used to monitor the activation of mu-opioid receptor. By expressing the real-time sensor GloSensor in cells, greater luminescence is observed when the cAMP concentration is high, and lower luminescence when the cAMP concentration is low. The GloSensor assay complements the split NanoLuc assay because it measures a downstream event rather than just binding between a G protein and the receptor i.e., membrane tethered opioid peptides (M-PROBE) activation not only causes G protein recruitment, but also downstream signaling events.
To test whether the M-PROBE induces downstream signaling as a free opioid, and that function of met-enkephalin is well-preserved in the membrane-tethered geometry, the same single chain met-enkephalin-CapC-MOR was expressed on the membrane of HEK 293T cells, and co-transfected cells with the cAMP-dependent luciferase. After overnight protein expression, HEK 293T cells were stimulated with forskolin to enhance the cAMP concentration within the cells. MOR is an inhibitory G-protein coupled receptor (GPCR), and its activation leads to decreased cAMP levels. A high cAMP concentration magnifies the effect of MOR activation.

[2] = biological target: T1, CAPs-caged SsrA split transcription factor (P2A construct u4) in rat cortical neurons UniProt P62942, F37V); experiment: Shield-1 dependent gene transcription in cultured neurons, TetR DBD, TRE-mCherry reporter; assay type: cell-based; conditions: AAV, 2 μM shield-1, 24 h
T1 construct: P2A self-cleaving peptide, separating it from the SspB-VP16 part (cleaved yes); host or cells: cultured rat cortical neurons, AAV
T1 sequence (P62942 with tags, fused parts or gaps F37V limits assumed): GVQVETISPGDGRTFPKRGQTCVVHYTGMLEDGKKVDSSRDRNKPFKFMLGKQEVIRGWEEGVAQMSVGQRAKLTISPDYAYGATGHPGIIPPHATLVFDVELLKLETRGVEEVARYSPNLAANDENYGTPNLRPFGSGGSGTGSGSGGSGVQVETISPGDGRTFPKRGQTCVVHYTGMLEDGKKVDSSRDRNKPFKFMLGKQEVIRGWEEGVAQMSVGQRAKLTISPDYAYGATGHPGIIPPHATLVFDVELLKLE
Experimental: To test the CAPs chemical-dependent transcriptional system in neuroscience applications, it was tested in cultured neurons. To enable homogeneous expression of DNA in stringent experiments, we generated single viral constructs that express both the DNA-binding and the transcription-activation domains via the self-cleaving peptide P2A or the internal ribosome entry site (TRES) were constructed (FIG. 12b). […] The P2A construct was then used to introduce the TetR DBD and VP16 transcription-activation domain into cultured rat cortical neurons through adeno-associated viruses (AAV), together with another AAV encoding the TRE-mCherry reporter gene. Shield-1 induced 44-fold increase in mCherry reporter gene expression compared to the no shield-1 condition (FIG. 12e and FIG. 19), showing that this system works robustly in cultured neurons.
Rat cortical neurons (Thermo Fisher Scientific, Cat #A1084001) were plated according to the user protocol. […] The viable cell density was determined by adding 10 μL of the cell suspension to 10 μl 0.4% Trypan blue, followed by cell counting using hemocytometer. […]
For neuronal infection, either concentrated AAVes or supernatant AAVes were added the neurons at DIV5-DIV10 (days in vitro). […] P values were determined by unpaired two-tailed t-tests.

[3] = test system: CAPs-caged NLS (PKIt NES-EGFP-CapN-NLS-CapC) in HEK 293T cells; experiment: Shield-1 controlled nuclear-cytoplasmic protein distribution; assay type: cell-based; conditions: 10 μM shield-1, 18 h
Text: The nucleocytoplasmic distribution of many eukaryotic proteins is a common determinant of their functions^30. Previously, NLS has been controlled by light through customized engineering with the AsLOV2 domain^13,14. To test if NLS is controlled by CAPs in a shield-I-dependent manner, a single-chain construct was designed in which a POI is expressed as a fusion protein with CAPs-caged NLS (FIG. 9e). […] Addition of shield-1 opens the CAPs and exposes NLS to endogenous importins, bringing the POI to the nucleus. Due to the strength of the NLS, a weak nuclear export signal, PKIt^13, was added to the construct to reduce the nuclear localization of the protein in the basal state.
HEK 293T cells were incubated for 18 h at 37° C. before imaging. […] Individual cells and the nuclei are determined by mCherry signal. Mean intensity and area are acquired with Nikon NIS-Elements analysis module. Mean intensities were subtracted by background mean intensity, and the resulting number is multiplied with the area to give total intensities. The EGFP distribution ratio was calculated by the total intensity of EGFP in the cytosol to that in the whole cell. P value was determined by unpaired two-tailed t-tests.

[4] = biological target: CAPs-caged SsrA (mCherry-CapN-SsrA-CapC-CAAX) with SspB-EGFP in HEK 293T cells (Homo sapiens, UniProt P62942, F37V); experiment: Shield-1 induced protein translocation to the plasma membrane; conditions: 1 μM shield-1
Text: To test use of CAPs for protein translocation, a shield-1 induced membrane localization system was designed (FIG. 9). In this design, CAPs-caged SsrA peptide is localized on the plasma membrane of HEK 293T cells by fusing to a transmembrane domain. The interacting partner of SsrA, SspB protein, is fused to the protein of interest (POI). As an example, evolved green fluorescent protein (EGFP) was used as the POI. Without shield-1, no binding between SsrA and SspB occurs, and EGFP is found throughout the cell.
Cells were incubated for 24 h at 37° C. before further processing. HEK293T cells were imaged with 60× oil-immersion objective on the Nikon inverted confocal microscope. Shield-1 dissolved in complete growth media was added gently to the top of the media to 1 μM during imaging. The intensity profile was acquired with Nikon NIS-Elements analysis module and plotted by GraphPad Prism 7.

[5] = biological target: T2, LID (FKBP with original binding sequence) fused to TEVcs (Homo sapiens, UniProt P62942, F37V); experiment: Yeast surface protease cleavage assay, TEVcs caged by LID; assay type: biochemical; conditions: LID degradation sequence replaced with TEVcs
T2 construct: TEVcs (ENLYFQ/G) (C); HA (C); expressed in transfected cells; host or cells: Saccharomyces cerevisiae EBY100, surface display from pCTCON2
T2 sequence (P62942 with tags, fused parts or gaps F37V limits assumed): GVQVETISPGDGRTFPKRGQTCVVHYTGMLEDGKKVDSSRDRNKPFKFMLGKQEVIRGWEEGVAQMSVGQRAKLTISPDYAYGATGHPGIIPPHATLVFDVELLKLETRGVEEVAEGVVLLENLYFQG
Experimental: (§1) The ability of LID to cage two short peptides that have been previously shown to be controllable by the AsLOV2 domain was tested. […] The degradation sequence (RRRGN) in LID was replaced with TEVcs or SsrA, and the remainder of the binding sequence and linker was retained (FIG. 1d).
Yeast that expressed TEV protease cleavage site (CapN constructs) was treated with TEVp prior to labeling with antibody-fluorophore conjugate. Samples were incubated with 200 μL PBSB containing TEVp (expressed and purified as described above, under “Expression and purification of TEV protease”) and 5 μM shield-1 at 4° C. for 3 h with rotation. For negative control, either TEVp or shield-1, or both, was not present in PBSB. […]
(§2) After TEVp or APEX2 labeling, samples were labeled with antibody-fluorophore and/or streptavidin-fluorophore conjugates. […] All samples were resuspended in PBSB and analyzed or sorted by FACS (fluorescence-activated cell sorting, following procedures described under “FACS analysis and library selection”) within 24 h of labeling.
(§3) After labeling according to the procedures described above (under “Yeast labeling”), non-library yeast samples were analyzed with an LSRFortessa cell analyzer flow cytometer (BD Biosciences) equipped with 640 nm laser and 670/14 emission filter (for Alexa Fluor647) as well as 561 nm laser and 586/15 emission filter (for Alexa Fluor568 and PE). […]

FKBP12(F36V) = FKBP12(F36V) (Homo sapiens, UniProt P62942, F37V); conditions: cited from earlier work
Sequence of FKBP12(F36V) (P62942 whole entry F37V, the tested form may be a part): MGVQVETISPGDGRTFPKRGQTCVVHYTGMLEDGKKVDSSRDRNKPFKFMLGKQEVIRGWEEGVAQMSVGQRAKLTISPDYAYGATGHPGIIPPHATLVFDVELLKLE

[6] = test system: CAPs-caged SsrA split transcription factor in HEK 293T cells; experiment: Shield-1 dependent gene transcription activation, Gal4 DBD, UAS-mCherry reporter; assay type: cell-based; set-up: Gene expression (mCherry) at different shield-1 concentrations: dose or concentration left out as unconfirmed; conditions: for Shield-1-induced increase in mCherry intensity: + vs - shield-1
CapN = biological target: T3, CapN (Homo sapiens, UniProt P62942, F37V); experiment: Shield-1 reversibility characterization with CapN-caged SsrA on yeast surface; assay type: binding; conditions: 10 min shield-1, washed, incubated up to 12 h without shield-1
T3 construct: expressed in transfected cells; host or cells: Saccharomyces cerevisiae EBY100, surface display from pCTCON2
T3 sequence (P62942 with tags, fused parts or gaps F37V): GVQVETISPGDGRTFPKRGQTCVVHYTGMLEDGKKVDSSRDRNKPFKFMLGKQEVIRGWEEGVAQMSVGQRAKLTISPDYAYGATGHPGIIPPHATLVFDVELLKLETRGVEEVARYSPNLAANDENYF
Experimental: FIG. 4. […] Yeast cells were incubated with shield-1 for 10 min, followed by washing to remove excess shield-1. […] Values are median biotin intensity of FLAG-positive cells (Q2+Q4). […] This experiment was performed once.
Yeast that expressed SsrA (CapC constructs) was subject to APEX2 labeling^40 prior to labeling with antibody-fluorophore and streptavidin-fluorophore conjugates. Samples were incubated with 100 μL of PBSB containing SspB-APEX2 (expressed and purified as described above, under “Expression and purification of SspB-APEX2”) and 5 μM shield-1 at room temperature for 10 min with rotation. For negative controls, either SspB-APEX2 or shield-1, or both, was not present in PBSB. […]
as §2, §3

[7] = test system: CAPs-caged TEVcs with TEV protease in HEK 293T cells; experiment: Shield-1 induced delocalization from the plasma membrane to the cytosol; assay type: cell-based; conditions: 10 μM shield-1, 18 h
Experimental: CAPs-caged TEVcs were anchored to the plasma membrane, followed by the POI (FIG. 9c). Under no shield-1 conditions, TEVcs are inaccessible to the co-expressed TEV protease, and the POI remains localized on the plasma membrane. With shield-1, TEVcs are uncaged and cleaved by TEV protease, thereby releasing the POI from the cell membrane.
Two extra wells without any infection are also plated for background subtraction. […] The two non-infection wells are treated with shield-1 and without shield-1, respectively. HEK 293T cells were incubated for 18 h at 37° C. before imaging.

[8] = biological target: T4, LID (FKBP with original binding sequence) fused to SsrA (Homo sapiens, UniProt P62942, F37V); experiment: Yeast surface binding assay, SsrA caged by LID; conditions: LID degradation sequence replaced with SsrA
T4 construct: expressed in transfected cells; host or cells: Saccharomyces cerevisiae EBY100, surface display from pCTCON2
T4 sequence (P62942 with tags, fused parts or gaps F37V): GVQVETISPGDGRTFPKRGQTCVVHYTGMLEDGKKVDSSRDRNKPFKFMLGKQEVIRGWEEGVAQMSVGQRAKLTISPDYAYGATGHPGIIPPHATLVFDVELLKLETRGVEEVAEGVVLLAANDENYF
Experimental: as §1
Yeast that expressed SsrA (CapC constructs) was subject to APEX2 labeling^40 prior to labeling with antibody-fluorophore and streptavidin-fluorophore conjugates. Samples were incubated with 100 μL of PBSB containing SspB-APEX2 (expressed and purified as described above, under “Expression and purification of SspB-APEX2”) and 5 μM shield-1 at room temperature for 10 min with rotation. […]
as §2, §3

mu-opioid receptor (MOR) [9] = experiment: Split NanoLuc assay, 1-chain CapC-caged met-enkephalin fused to opioid receptor, Nb44 recruitment; assay type: cell-based; conditions: HEK293T cells, 1-chain design
Text: To test shield-1 chemical-dependent regulation of an opioid peptide, CapC-caged met-enkephalin was fused directly onto the N-terminus of the opioid receptor as shown in the right panel of FIG. 22. In this design, the M-PROBE cell membrane tethered opioid peptides (M-PROBE) and the opioid receptors were expressed in a fixed ratio in close proximity.

C[C@@H](NC(=O)[C@@H](N)Cc1ccc(O)cc1)C(=O)NCC(=O)N(C)[C@@H](Cc1ccccc1)C(=O)NCCO [DAMGO] showed a Decrease in luminescence (mu-opioid receptor (MOR) [1]; 10 micromolar) of roughly 80%.
In the case of CC[C@H](C(=O)N1CCCC[C@H]1C(=O)O[C@H](CCc1ccc(OC)c(OC)c1)c1cccc(OCCN2CCOCC2)c1)c1cc(OC)c(OC)c(OC)c1 [shield-1], the Decrease in luminescence (mu-opioid receptor (MOR) [1]; shield-1 treated) is reported as roughly 50%, the “Increase in mCherry reporter gene expression vs no shield-1” value [2] is reported as 44 fold and the “EGFP nuclear-cytosolic distribution after shield-1 addition” value [3] is reported as “depleted from the cytosol and preferentially localized in the nucleus”. The “Time to EGFP translocation to the plasma membrane” value [4] was “within seconds”, the “Shield-1 dependence of TEVcs accessibility” value [5] was “not observed” and the “Affinity for FKBP relative to wild-type FKBP” value (FKBP12(F36V); FKBP12(F36V) vs wild-type FKBP) was “over 1000 fold”. For the same molecule, the “Affinity for FKBP” value (FKBP12(F36V); FKBP12(F36V)) was “sub-nanomolar”, the “Shield-1-induced increase in mCherry intensity” value ([6]; CAPs (tandem) caged 8-amino-acid SsrA) was roughly 25 fold and the “Shield-1 dependent reporter gene expression change” value ([6]; CAPs caged 7-amino-acid SsrA (AANDENY), construct u3) was 156 fold. The “Shield-1-induced increase in mCherry intensity” value ([6]; CapN caged 8-amino-acid SsrA) was roughly 4 fold, the “Gene expression (mCherry) at different shield-1 concentrations” value ([6]; construct u3) was “robust gene expression” and the “Shield-1 incubation period sufficient to induce gene expression” value ([6]; construct u3, 1 μM shield-1, imaged 24 h after addition) was 30 min. The Gene expression induction ([6]; construct u3, overnight incubation, shield-1 50 nM or above) was greater than 30 fold, the Gene expression ([6]; construct u3, overnight incubation, shield-1 below 10 nM) was “did not induce gene expression” and the “Shield-1 dependent dynamic range” value ([6]; maximum over caged peptides) was “up to 156 fold”. For the same molecule, the “Level of EGFP (transcription-activation domain expression)” value ([6]; shield-1 added to EGFP-SspB-VP16 alone) was “No difference was found; also recorded: did not increase the level of EGFP”, the “Increase in mCherry expression” value ([6]; single viral IRES construct (u5)) was 123 fold and the “Increase in mCherry expression” value ([6]; single viral P2A construct (u4)) was 83 fold. For the same molecule, the “Biotin signal / CapN state after washing away shield-1” value (CapN) was “No decrease in biotin signal; also recorded: CapN remained open”, the “EGFP localization after shield-1 addition” value [7] was “depletes EGFP from the plasma membrane; also recorded: depleted the EGFP from the plasma membrane and significantly increased its presence in the cytoplasm” and the “Shield-1 dependence of SsrA accessibility” value [8] was “not observed”. The “Luminescence signal (RLU)” value (mu-opioid receptor (MOR) [9]) was “increase the signal”.
